From patent US20240263127A1, “CRYOPROTECTIVE COMPOSITIONS AND USES THEREOF” (DUPONT NUTRITION BIOSCIENCES APS, priority 2010, published 2024)
Read-outs that look alike come from different tables or passages of the source.

Columns and labels:
[1] = test system: Lactobacillus acidophilus; assay type: cell-based; conditions: for Viable cell counts after accelerated stability test: L. acidophilus; for Recovery of viable cell after accelerated stability test: Lactobacillus acidophilus, 14 days
Experimental: (§1) The cell count of the freeze dried material has been evaluated through a typical bacteria enumeration method used for lactic acid bacteria. In this method, the freeze dried bacteria were suspended into a MRS solution with a stomacher and revitalized in that solution for 30 minutes. The suspension was then successively diluted in bottles of peptone buffer and finally cultured on a MRS nutritive media for 48 to 72 hours at 38° C. under anaerobic condition. During that period, the bacteria form colonies on the nutritive media. Those colonies were counted and results were expressed as Colony Forming Units (CFU) per gram. Long term stability of freeze dried bacteria as a function of time is a critical characteristic for commercial application. The long term stability can be evaluated by accelerated stability test consisting of placing the freeze dried cells into a sealed laminated aluminum foil in a constant temperature chamber maintained at 38° C. for fourteen days. The cell count of the freeze dried material is measured before and after the exposure to elevated temperature. A recovery rate of cells is calculated by subtracting the cells measured after the accelerated stability test from the initial cells measurement and dividing the subtraction results by the initial count. The accelerated stability test recovery rate gives a relative estimate of the long term cell stability. Various cryoprotectants (see table 1) were mixed in a suspension containing, Lactobacillus acidophilus at an approximate cell count of 1E11 CFU/gr. The mixture, called stabilized concentrate, was kept at 4-8° C. for 1.5 hrs and continuously agitated before being frozen by dispensing droplets of the stabilized concentrate into liquid nitrogen. The resulting frozen droplets are called frozen pellets. The frozen pellets were freeze dried in a Virtis® freeze drier at 100 mT and a cell count measurement was performed just after freeze drying by performing an accelerated stability test. Various ratio of Inositol over Trehalose have been tested. The cryoprotectants were mixed for 1 to 3 hrs at 10-30° C. to a suspension containing Lactobacillus acidophilus at an approximate cell count of 1E11 CFU/gr. The mixture was frozen and freeze dried, and a cell count was performed just after freeze drying by performing an accelerated stability test, as disclosed in Example 1.

[2] = test system: Lactobacillus acidophilus; experiment: Viable cell count after freeze drying with cryoprotectant; assay type: cell-based; conditions: for Recovery of viable cell from frozen pellets to freeze dried pellets: Example 2
Experimental: as §1, with “gram.” for “gram. Long term stability of freeze dried bacteria as a function of time is a critical characteristic for commercial application. The long term stability can be evaluated by accelerated stability test consisting of placing the freeze dried cells into a sealed laminated aluminum foil in a constant temperature chamber maintained at 38° C. for fourteen days. The cell count of the freeze dried material is measured before and after the exposure to elevated temperature. A recovery rate of cells is calculated by subtracting the cells measured after the accelerated stability test from the initial cells measurement and dividing the subtraction results by the initial count. The accelerated stability test recovery rate gives a relative estimate of the long term cell stability.”

[3] = freeze dried cells 38° C. for fourteen days, Example 1
[4] = L. acidophilus suspension approx. 1E11 CFU/gr, freeze dried at 100 mT, Example 1
[5] = 38° C. for fourteen days, Example 2
[6] = L. acidophilus, Example 2, Trehalose/Inositol ratios

| SMILES | Viable cell counts after accelerated stability test [1, 3] [CFU/gr] | Recovery of viable cell after accelerated stability test [1] [%] | Viable cell counts after freeze drying [2, 4] [CFU/gr] | Recovery of viable cells after accelerated stability test [1] [%] | Viable cell counts after accelerated stability test [1, 5] [CFU/gr] | Recovery of viable cell from frozen pellets to freeze dried pellets ([2]; L. acidophilus) [%] | Viable cell counts after freeze drying [2, 6] [CFU/gr] |
| --- | --- | --- | --- | --- | --- | --- | --- |
| O[C@H]1[C@H](O)[C@@H](O)[C@H](O)[C@@H](O)[C@H]1O [Inositol alone, Inositol] | 1.3E+11 | 41.0 | 3.2E+11 | – | – | – | – |
| O[C@H]1[C@H](O)[C@@H](O)[C@H](O)[C@@H](O)[C@H]1O [Trehalose 0.0 / Inositol 9.1, Inositol] | – | – | – | 72.37 | 3.72E+11 | 81.2 | 5.14E+11 |
| O[C@H]1[C@H](O)[C@@H](O)[C@H](O)[C@@H](O)[C@H]1O [Trehalose 0.0 / Inositol 20.0, Inositol] | – | – | – | 65.41 | 2.42E+11 | 94.7 | 3.70E+11 |
| OC[C@H]1O[C@H](O[C@H]2O[C@H](CO)[C@@H](O)[C@H](O)[C@H]2O)[C@H](O)[C@@H](O)[C@@H]1O [Trehalose alone experiment 1, Trehalose] | 2.2E+11 | 29.0 | 7.4E+11 | – | – | – | – |
| OC[C@H]1O[C@H](O[C@H]2O[C@H](CO)[C@@H](O)[C@H](O)[C@H]2O)[C@H](O)[C@@H](O)[C@@H]1O [Trehalose alone experiment 2, Trehalose] | 2.4E+11 | 38.0 | 6.6E+11 | – | – | – | – |
